We go through seven molecules from ChEMBL document CHEMBL1148089, “Inhibitors of protein tyrosine kinase pp60v-src: sterol sulfates from the brittle star Ophiarachna incrassata” (J Nat Prod, 1994).

As usually defined, the pIC50 is −log10 of the IC50, conventionally taken in molar units. High values mean a low IC50, low ones a high IC50.

pIC50: −log10 of the molar value.

This assay in a line: Inhibition of Rous sarcoma virus v-Src.
In the case of `CC(CCC[C@@H](C)[C@H]1CC[C@H]2[C@@H]3CC[C@H]4C[C@H](OS(=O)(=O)O)[C@@H](OS(=O)(=O)O)C[C@]4(C)[C@H]3CC[C@]12C)COS(=O)(=O)O` (some centres not stated), the pIC50 was 4.96. `C[C@@]12CCC(=O)c3coc(c31)C(=O)c1cc3c(cc12)C(=O)C=CC3=O` [HELENAQUINONE] showed a pIC50 of 5.82. `CC(CCC[C@@H](C)[C@H]1CC[C@H]2[C@@H]3CC=C4C[C@H](OS(=O)(=O)O)[C@@H](OS(=O)(=O)O)C[C@]4(C)[C@H]3CC[C@]12C)COS(=O)(=O)O` (some centres not stated) had a pIC50 of 4.92.

As to `C[C@@]12CCC(=O)c3coc(c31)C(=O)c1cc3c(O)ccc(O)c3cc12` [HELENAQUINOL], the negative logarithm of the IC50 (pIC50) is 6.22. The molecule `CC(C)CCC[C@@H](COS(=O)(=O)O)[C@H]1CC[C@H]2[C@@H]3CC=C4C[C@H](OS(=O)(=O)O)C[C@@H](O)[C@]4(C)[C@H]3CC[C@]12C` showed a pIC50 of 4.19. For `CC(C)CCC[C@@H](COS(=O)(=O)O)[C@H]1CC[C@H]2[C@@H]3CC=C4C[C@H](OS(=O)(=O)O)CC[C@]4(C)[C@H]3CC[C@]12C`, the pIC50 was 4.51. In the case of `CC(C)CCC[C@@H](COS(=O)(=O)O)[C@H]1CC[C@H]2[C@@H]3CC[C@@H]4[C@H](O)[C@H](OS(=O)(=O)O)CC[C@]4(C)[C@H]3[C@@H](O)C[C@]12C`, the pIC50 was 4.21.
